Here are results for 15 compounds from patent publication US12037324B2, “Biarylmethyl heterocycles” (Université de Montréal, priority 2016, dated 2024).

A value given as a limit tells only on which side of the number the result lay.

Holding throughout (format): cell-based
For one test, the target named is T1, AGTR1 (Homo sapiens, UniProt P30556).
T1 construct: host or cells: Pathunter CHO-K1 AGTR1 β-arrestin cell line (CHO-K1)
T1 sequence (P30556 1-359): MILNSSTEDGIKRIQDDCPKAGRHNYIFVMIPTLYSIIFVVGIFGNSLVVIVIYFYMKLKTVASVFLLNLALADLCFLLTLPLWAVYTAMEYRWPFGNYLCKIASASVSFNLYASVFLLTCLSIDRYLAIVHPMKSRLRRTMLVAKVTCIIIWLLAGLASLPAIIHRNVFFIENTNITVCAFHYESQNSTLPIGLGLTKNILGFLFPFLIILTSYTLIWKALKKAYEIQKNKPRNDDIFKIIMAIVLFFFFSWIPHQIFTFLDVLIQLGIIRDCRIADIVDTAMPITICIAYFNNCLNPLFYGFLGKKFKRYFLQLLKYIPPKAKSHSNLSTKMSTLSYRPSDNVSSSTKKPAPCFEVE
The test is described as follows: DiscoveRx β-arrestin2 recruitment assay (enzyme complementation, Pathunter CHO-K1 AGTR1 β-arrestin cell line). As to conditions: DiscoveRx β-arrestin2 recruitment. The method, boiled down:
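CHO-K1 cells expressing AGTR1 with β-arrestin2 enzyme-complementation reporter, plated 14-16 h ahead in 1% serum medium, then exposed to compounds for 90 min at 37° C. Chemiluminescence read after 1 h detection. EC50 (agonist) or IC50 (antagonist) from 4-parameter logistic fit; activity as percentage of All maximal effect.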

Test [1] concerns the target T2, hAT1R (Homo sapiens, UniProt P30556).
T2 sequence (P30556 1-359): T1 sequence (P30556 1-359)
The test is described as follows: BRET β-arrestin2 biosensor assay, higher receptor expression (hAT1R 5 ng/well), HEK293 cells. The following applies: for EC50: High AT1R Expression.

For test [2], the target named is T2, hAT1R. The test is described as follows: BRET Gq biosensor assay, agonist response, HEK293 cells. The following applies: section of the 42nd table directly before the BRET P63 section. The method, then: BRET β-arrestin2 and Gq Activation Assays
In another aspect of the invention, association of the ATIR with signaling proteins is assessed using bioluminescence resonance energy transfer assays (Stephane Angers, Ali Salahpour et al. 2002). This technology measures the association between bioluminescent and fluorescent protein tags.
Several of the plasmid constructs used in BRET experiments were previously described. Briefly, the coding sequence of β-arrestin2 was fused to Renilla luciferase II to generate β-arrestin2-Rluc (Quoyer, Janz et al. 2013). The membrane targeting motif from K-Ras, CAAX motif (GKKKKKKSKTKCVIM), was fused to Renilla GFP to create rGFP-CAAX plasmid (Namkung Y et al., Nat Commun (2016) 7, 12178). The Renilla luciferase II was inserted in the Gaq protein to generate Gaq-Rluc (Breton, Sauvageau et al. 2010). The Gγ1 protein was tagged with GFP10 to obtain GFP-Gyl, using the same strategy described previously for GFP-Gy2 (Gales, Rebois et al. 2005). The Gaq binding domain of the p63RhoGEF protein (amino acids 295-502) was fused to Renilla luciferase II to create P63-Rluc. Finally, the hAT1R plasmid construct encoding the receptor was generated by optimizing the coding sequence of human angiotensin II receptor (GeneOptimizer from ThermoFisher), and adding an artificial cleavable signal peptide from bovine prolactin ([…]) in N-terminus of the receptor to increase cell surface expression.
Gq Biosensor Assay HEK293 cells were cultured in DMEM supplemented with Penicillin-Streptomycin and 10% fetal bovine serum. Two days before the BRET experiment, HEK293 cells were transfected with hAT1R expression plasmid (200 ng/well) as well as Gaq-Rluc (100 ng/well), Gβ1 (375 ng/well) and GFP-Gγ1 (625 ng/well), using linear polyethylenimine 25 kDa (PEI) at a PEI:DNA ratio of 3:1. Transfected cells were directly seeded in 96-well plates, at a density of 35 000 cells per well, and maintained in culture for the next 48 h.
BRET experiments were carried out subsequently using the following procedures: cells were washed once with Tyrode's buffer (137 mM NaCl, 1 mM CaCl2, 0.9 mM KCl, […], 3.6 mM NaH2PO4, 5.5 mM glucose, 12 mM NaHCO3, and 25 mM HEPES, pH 7.4) and 90 μl of Tyrode's buffer was added to each well. Cells were equilibrated in their new buffer at room temperature for at least 30 minutes. Following the equilibration period, the coelenterazine substrate was first added to the cells, 10 μl per well of a 10×solution (prolume purple coelenterazine at a final concentration of 2 μM), immediately followed by compound addition using the HP D300 digital dispenser from Tecan (10 singlicate concentrations). Cells were incubated for 5 min at room temperature and BRET readings were then collected using a Synergy Neo Multi-Mode reader from BioTek with BRET2 filters 410/515, to record agonist response. […] A second reading was collected 5 min after this second addition, using the Synergy Neo Multi-Mode reader from BioTek with BRET2 filters 410/515, to record antagonist response. The BRET signal was determined by calculating the ratio of the light emitted by GFP (515 nm) over the light emitted by the Rluc (410 nm). To analyze agonist response, BRET signal values were converted into percentage of activation using the non-stimulated control as 0% and AngII maximal response as 100%. Sigmoidal concentration-response curves were generated with those normalized values using a 4-parameter logistic equation (IDBS ActivityBase software), to determine EC50 of the different compounds. In the case of antagonist response analysis, BRET signal values were converted into percentage of inhibition using the fixed dose of AngII (corresponding to the EC50) as 0% and non-stimulated control as 100%. Sigmoidal concentration-response curves were generated with those normalized values using a 4-parameter logistic equation (IDBS ActivityBase software), to determine IC50 of the different compounds.

As for `CCCCC(=O)N(Cc1ccc(-c2cc(-c3cccnc3OC)ccc2-c2nn[nH]n2)cc1)[C@H](C(=O)O)C(C)C` [Example 439], on AGTR1, the “DiscoveRx β-arrestin2 Ymax (%)” value is 26.4% and the EC50 came out at 108 nM. In addition, on hAT1R [1], the “BRET β-Arrestin2 High AT1R Expression Ymax (%)” value was 35.8% and the concentration giving a half-maximal response (EC50) is 117 nM. For the same compound, on hAT1R [2], the EC50 amounted to 386 nM.
Take `CCCc1nc(CC)c(C(N)=O)n1Cc1ccc(-c2cc(-c3ccccc3)ccc2-c2nn[nH]n2)cc1` [Example 398, 1-((6′-(2H-tetrazol-5-yl)-[1,1′:3′,1″-terphenyl]-4-yl)methyl)-4-ethyl-2-propyl-1H-imidazole-5-carboxamide]: the EC50 at AGTR1 came out at 12.7 nM; at hAT1R [1] it was 13.4 nM; at hAT1R [2], 35.1 nM. The “DiscoveRx β-arrestin2 Ymax (%)” value on AGTR1 (maximal response) came to 53.6%. The “BRET β-Arrestin2 High AT1R Expression Ymax (%)” value on hAT1R [1] is on record as 91.0%.
For `CCCCc1nc(Cl)c(C(N)=O)n1Cc1ccc(-c2cc(-c3ccccc3)ccc2-c2noc(=O)[nH]2)cc1` [Example 394] the same measures were 365 nM, 37.3 nM, 76.4 nM, 59.1% and 94.9%.
Take `CCCCC1=NC2(CCCC2)C(=O)N1Cc1ccc(-c2cc(Oc3ccccc3)ccc2-c2nnn[nH]2)cc1` [Example 454, 2-Butyl-3-((5′-phenoxy-2′-(1H-tetrazol-5-yl)-[1,1′-biphenyl]-4-yl)methyl)-1,3-diazaspiro[4.4]non-1-en-4-one]: on AGTR1, the “DiscoveRx β-arrestin2 Ymax (%)” value worked out at 11.2% and the EC50 is 22.7 nM. Besides, on hAT1R [1], the “BRET β-Arrestin2 High AT1R Expression Ymax (%)” value is listed as 18.4% and the midpoint of the response, the EC50, lay at 56.2 nM. Moreover, the concentration giving a half-maximal response (EC50) at hAT1R [2] is above 100000 nM.
Take `CCCCc1ncc(C(=O)NCC(C)(C)C)n1Cc1ccc(-c2cc(-c3ccccc3)ccc2-c2nn[nH]n2)cc1` [Example 373]: the values for the EC50 on AGTR1, at hAT1R [1] and on hAT1R [2] were 14.2 nM, 38.5 nM and 734 nM, respectively. In addition, on AGTR1 (maximal response), the “DiscoveRx β-arrestin2 Ymax (%)” value is given as 29.5%. For the same compound, the “BRET β-Arrestin2 High AT1R Expression Ymax (%)” value at hAT1R [1] is reported as 71.4%.
Regarding `CCCCC(=O)N(Cc1ccc(-c2cc(-c3ccc(NC(C)=O)cc3)ccc2-c2nn[nH]n2)cc1)[C@H](C(=O)O)C(C)C` [Example 440], the “DiscoveRx β-arrestin2 Ymax (%)” value on AGTR1 worked out at 13.6%. For the same compound, the EC50 was found to be 241 nM on AGTR1, 28300 nM at hAT1R [1] and 582 nM at hAT1R [2]. Moreover, on hAT1R [1], the “BRET β-Arrestin2 High AT1R Expression Ymax (%)” value is reported as 50.1%.
Consider `CCCCc1ncc(C(=O)NC(C)(C)C)n1Cc1ccc(-c2cc(-c3ccccc3)ccc2-c2nn[nH]n2)cc1` [Example 352], for which the EC50 at AGTR1 was found to be 234 nM; on hAT1R [1], 290 nM; on hAT1R [2], 1180 nM. The “DiscoveRx β-arrestin2 Ymax (%)” value on AGTR1 (maximal response) was determined as 35.7%. The “BRET β-Arrestin2 High AT1R Expression Ymax (%)” value at hAT1R [1] came to 62.2%.
For `CCCCc1ncc(C(=O)NCC(C)(C)COC)n1Cc1ccc(-c2cc(-c3ccccc3)ccc2-c2nn[nH]n2)cc1` [Example 360] the same measures were 29.2 nM, 35.1 nM, above 100000 nM, 37.2% and 75.0%.
On to `CCCCC(=O)N(Cc1ccc(-c2cc(Oc3cccnc3)ccc2-c2nn[nH]n2)cc1)C1(C(=O)O)CCCCC1` [Example 286], for which the EC50 on AGTR1 was found to be 113 nM; at hAT1R [1], 47.1 nM; on hAT1R [2] it was 302 nM. For the same compound, on AGTR1 (maximal response), the “DiscoveRx β-arrestin2 Ymax (%)” value was 35.8%. For the same compound, the “BRET β-Arrestin2 High AT1R Expression Ymax (%)” value at hAT1R [1] was 45.3%.
As to `CCCCc1ncc(C(=O)NCc2cnccn2)n1Cc1ccc(-c2cc(-c3ccccc3)ccc2-c2nn[nH]n2)cc1` [Example 359], the EC50 on AGTR1 stood at 17.4 nM; on hAT1R [1] it was 15.3 nM; at hAT1R [2], 39.4 nM. For the same compound, the “DiscoveRx β-arrestin2 Ymax (%)” value on AGTR1 (maximal response) is 43.5%. In addition, the “BRET β-Arrestin2 High AT1R Expression Ymax (%)” value at hAT1R [1] amounted to 90.8%.
For `CCCCC(=O)N(Cc1ccc(-c2cc(-c3ccccc3)ccc2-c2nn[nH]n2)nc1)C1(C(=O)O)CCCCC1` [Example 273] the same measures were 21.4 nM, 23.2 nM, 155 nM, 39.3% and 88.1%.
The corresponding values for `CCCCC(=O)N(Cc1ccc(-c2cc(-c3ccccc3)ccc2-c2nn[nH]n2)cc1)[C@]1(C(=O)O)CC[C@@H](C)CC1` [Example 278] are 45.1 nM, 13 nM, 1210 nM, 51.9% and 87.2%.
For `CCCCc1nc(Cl)c(C(=O)O)n1Cc1ccc(-c2cc(N3CCCC(F)(F)C3)ccc2-c2nn[nH]n2)cc1` [Example 416, 2-butyl-4-chloro-1-((5′-(3,3-difluoropiperidin-1-yl)-2′-(2H-tetrazol-5-yl)-[1,1′-biphenyl]-4-yl)methyl)-1H-imidazole-5-carboxylic acid] the same measures were 18 nM, 115 nM, above 100000 nM, 29.5% and 69.0%.
With `CCCCC(=O)N(Cc1ccc(-c2cc(-c3cnn(C)c3)ccc2-c2nn[nH]n2)cc1)[C@H](C(=O)O)C(C)C` [Example 442], at AGTR1, the “DiscoveRx β-arrestin2 Ymax (%)” value is listed as 10.9% and it took 105 nM to reach a half-maximal effect (EC50). In addition, on hAT1R [1], the “BRET β-Arrestin2 High AT1R Expression Ymax (%)” value came out at 17.2% and the EC50 was 303 nM. In addition, the EC50 on hAT1R [2] is above 100000 nM.
`CCCCC(=O)N(Cc1ccc(-c2cc(-c3ccccc3)ccc2-c2nn[nH]n2)cc1)[C@]1(C(=O)O)CC[C@@H](O)CC1` [Example 283, (1R,4R)-1-(N-((6′-(2H-Tetrazol-5-yl)-[1,1′:3′,1″-terphenyl]-4-yl)methyl)pentan-amido)-4-hydroxycyclohexanecarboxylic acid]: the EC50 at AGTR1 stood at 44.5 nM; at hAT1R [1] it was 22.8 nM; at hAT1R [2], 155 nM. For the same compound, on AGTR1 (maximal response), the “DiscoveRx β-arrestin2 Ymax (%)” value is reported as 57.5%. In addition, the “BRET β-Arrestin2 High AT1R Expression Ymax (%)” value on hAT1R [1] was determined as 88.5%.
